pEC50: −log10 of the molar value.
Legend:
[1] = target: T1, COS-7/AMY3 (human calcitonin receptor (CTR) and RAMP3) (Homo sapiens, UniProt O60896+P30988); assay: Amylin Receptor cAMP Assay II; type: cell-based; conditions: values marked **: Amylin Receptor cAMP Assay II; COS-7/AMY3 cells, cAMP dynamic 2 kit, 30 min; read-out: Amylin Receptor cAMP Stimulation Activity: EC50
T1 construct: expressed in transfected cells; host or cells: COS-7
Source text: AMYRs are heterodimers of the class B calcitonin (CT) G-protein-coupled receptor (CTR) and receptor activity-modifying proteins (RAMPs). All three RAMPs can interact with the CTR and form AMY1, AMY2, AMY3 with RAMP1, RAMP2 and RAMP3, respectively. Like other class B1 GPCRs, the CT receptor family is canonically coupled to Gs-mediated cAMP production, and measurement of cAMP accumulation has been the primary assay used to determine peptide selectivity and potency.
(§1) To optimize functional activity directed toward Gαs coupling, COS-7 cells were stably transfected with human calcitonin receptor (CTR) and RAMP3, simultaneously. 100×concentration of compound working solutions were prepared with 4-fold serial dilution in 384-well Echo LDV plate (Labcyte, Cat #LP-0200-BC). 200 nL/well 100×concentration of compound working solutions were moved to 384-well white microplate (Perkin Elmer, Cat #6007680) using Labcyte ECHO550. 1×10^5 cells/mL COS-7/AMY3 cell suspensions prepared with assay buffer [HBSS containing 20 mM HEPES (Gibco, Cat #15630-080), 0.5 mM IBMX (Sigma, Cat #15879) and 0.1% Casein (Sigma, Cat #C4765)], 20 μL cell suspensions were added to each well of previous generated assay plate which already contains 200 nL compound at 100×concentration using ThermoFisher Multidrop Combi (2000 cells/well). Seal the plate and incubate at 37° C. with 5% CO2 for 30 min.
(§2) After incubation, the cAMP assay signal was generated using cAMP dynamic 2 kit (Revvity, Cat #62AM4PEC). 10 μL cAMP-d2 working solution was added to each well, followed by 10 μL Anti-cAMP antibody-cryptate working solution which was added to each well using CERTUS FLEX LIQUID […]. The samples were then incubated at room temperature for 1 hour protected from light. the fluorescence was read at 665 and 615 nm with Reader PerkinElmer EnVision 2105. % Activity=100−(mean RLU of test sample−mean RLU of positive control)/(mean RLU of vehicle control−mean RLU of positive control)×100 Calcitonin Receptor (CTR) cAMP Assay

[2] = target: T2, human calcitonin receptor (CTR) (Homo sapiens, UniProt P30988); assay: Calcitonin Receptor (CTR) cAMP Assay; type: cell-based; conditions: COS7-human CTR Clone #2 stable cell line, cAMP dynamic 2 kit, 30 min; read-out: Calcitonin Receptor cAMP Stimulation Activity: EC50
T2 construct: expressed in transfected cells; host or cells: COS-7 (COS7-human CTR Clone #2)
T2 sequence (P30988 25-474): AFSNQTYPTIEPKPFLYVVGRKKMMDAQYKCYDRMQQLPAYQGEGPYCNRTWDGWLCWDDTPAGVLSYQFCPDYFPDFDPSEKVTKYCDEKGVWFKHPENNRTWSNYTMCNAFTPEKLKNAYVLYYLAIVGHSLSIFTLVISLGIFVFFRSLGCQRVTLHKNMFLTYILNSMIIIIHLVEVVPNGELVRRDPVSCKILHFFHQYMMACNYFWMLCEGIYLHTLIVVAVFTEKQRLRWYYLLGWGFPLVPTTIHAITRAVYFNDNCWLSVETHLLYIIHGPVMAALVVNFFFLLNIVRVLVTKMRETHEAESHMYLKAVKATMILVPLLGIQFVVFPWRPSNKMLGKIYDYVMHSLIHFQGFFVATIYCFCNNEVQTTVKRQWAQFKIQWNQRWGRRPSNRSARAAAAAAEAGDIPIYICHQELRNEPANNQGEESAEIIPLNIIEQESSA
Procedure: as §2
The calcitonin receptor (CTR) belongs to the subfamily of GPCRs known as the secretin or ‘B’ family of GPCRs. Like other class B1 GPCRs, the CT receptor family is canonically coupled to Gs-mediated cAMP production, and measurement of cAMP accumulation has been the primary assay used to determine peptide selectivity and potency.
as §1, with “to create COS7-human CTR Clone #2 stable cell line.” for “and RAMP3, simultaneously.”, “COS7-human CTR Clone #2” for “COS-7/AMY3”
as §2, with “control)×100” for “control)×100 Calcitonin Receptor (CTR) cAMP Assay”

T1 sequence (O60896 24-148, one chain of several): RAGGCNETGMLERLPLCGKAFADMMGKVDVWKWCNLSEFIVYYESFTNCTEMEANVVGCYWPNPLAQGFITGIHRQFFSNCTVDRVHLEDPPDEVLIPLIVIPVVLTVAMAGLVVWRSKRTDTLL

Row | SMILES | pEC50 [1] | pEC50 [2]
1 | C[C@@H](Nc1nccc2cc(-c3c4c(nc(CCc5ccc(F)cc5)c3-c3noc(=O)[nH]3)[C@@H]3CCCN3C4=O)sc12)c1ccc(F)c(F)c1 [Compound 140] | 7.72 | 8.67
2 | C[C@H](Nc1nccc2cc(-c3c4c(nc(CCc5ccc(F)cc5)c3-c3noc(=O)[nH]3)[C@@H]3CCCN3C4=O)sc12)c1ccc(F)c(F)c1 [Compound 141] | 6.15 | 7.05
3 | O=C1c2c(nc(CCc3ccc(F)cc3)c(-c3noc(=O)[nH]3)c2-c2cc3ccnc(NCc4ccc(F)c(Cl)c4)c3s2)[C@@H]2CCCN12 [Compound 146] | 7.27 | 8.50
4 | O=C1c2c(nc(CCc3ccc(F)cc3)c(-c3noc(=O)[nH]3)c2-c2cc3ccnc(NCc4ccc(Cl)c(F)c4)c3s2)[C@@H]2CCCN12 [Compound 147] | 7.28 | 8.55
5 | O=C1c2c(nc(CCc3ccc(F)cc3)c(-c3noc(=O)[nH]3)c2-c2cc3ccnc(NCc4ccc5c(c4)CCC5)c3s2)[C@@H]2CCCN12 [Compound 148] | 6.54 | 7.73
6 | COc1cccc2c1CC[C@H]2Nc1nccc2cc(-c3c4c(nc(CCc5ccc(F)cc5)c3-c3cc(=O)[nH]o3)[C@@H]3CCCN3C4=O)sc12 [Compound 150, 5-((S)-2-(4-fluorophenethyl)-4-(7-(((R)-4-methoxy-2,3-dihydro-1H-inden-1-yl)amino)thieno[2,3-c]pyridin-2-yl)-5-oxo-7,8,9,9a-tetrahydro-5H-pyrido[2,3-a]pyrrolizin-3-yl)isoxazol-3(2H)-one] | 7.60 | 8.97
7 | COc1cccc2c1CC[C@H]2Nc1nccc2cc(-c3c4c(nc(CCc5cccc(C6CCOC6)c5)c3-c3noc(=O)[nH]3)[C@@H]3CCCN3C4=O)sc12 (stereo partly drawn) [Compound 151, 3-((9aS)-4-(7-(((R)-4-methoxy-2,3-dihydro-1H-inden-1-yl)amino)thieno[2,3-c]pyridin-2-yl)-5-oxo-2-(3-(tetrahydrofuran-3-yl)phenethyl)-7,8,9,9a-tetrahydro-5H-pyrido[2,3-a]pyrrolizin-3-yl)-1,2,4-oxadiazol-5(4H)-one] | 6.80 | 7.66
8 | O=C1c2c(nc(CCc3ccc(F)cc3)c(-c3noc(=O)[nH]3)c2-c2ccc3nn(C4CCc5ccccc54)cc3c2)[C@@H]2CCCN12 (stereo partly drawn) [Compound 152] | 5.29 | 6.29
9 | O=C1c2c(nc(CCc3ccc(F)cc3)c(-c3noc(=O)[nH]3)c2-c2ccc3c(ccn3Cc3ccc(F)c(F)c3)c2)[C@@H]2CCCN12 [Compound 153] | 7.78 | 8.59
10 | CC(C)C1CS(=O)(=O)c2c1nc(CCC1CCOCC1)c(-c1cc(=O)[nH]o1)c2-c1cc2ccnc(N[C@@H]3CCc4ncccc43)c2s1 (stereo partly drawn) [Compound 154, 5-(7-(7-(((R)-6,7-dihydro-5H-cyclopenta[b]pyridin-5-yl)amino)thieno[2,3-c]pyridin-2-yl)-3-isopropyl-1,1-dioxido-5-(2-(tetrahydro-2H-pyran-4-yl)ethyl)-2,3-dihydrothieno[3,2-b]pyridin-6-yl)isoxazol-3(2H)-one] | 6.19 | 7.28
11 | COc1cccc2c1CC[C@H]2Nc1nccc2cc(-c3c(-c4n[nH]c(=O)o4)c(CCc4ccc(F)cc4)nc4c3c(=O)n3n4CCC3)sc12 [Compound 155] | 7.47 | 8.92
12 | COc1cccc2c1CC[C@H]2Nc1nccc2cc(-c3c(-c4n[nH]c(=O)o4)c(CCc4ccc(F)cc4)nc4c3S(=O)(=O)CC4C(C)C)sc12 (stereo partly drawn) [Compound 156, 5-(5-(4-fluorophenethyl)-3-isopropyl-7-(7-(((R)-4-methoxy-2,3-dihydro-1H-inden-1-yl)amino)thieno[2,3-c]pyridin-2-yl)-1,1-dioxido-2,3-dihydrothieno[3,2-b]pyridin-6-yl)-1,3,4-oxadiazol-2(3H)-one] | 7.26 | 8.61

From patent US12486269B2 (Aconcagua Bio, Inc., priority 2024, dated 2025)
